Measurements from ChEMBL document CHEMBL1126226, “The discovery of a new structural class of potent orally active leukotriene D4 antagonists” (Bioorg Med Chem Lett, 1992).

Legend:
[1] = molecular target: T1, Cysteinyl leukotriene receptor 1 (Cavia porcellus, UniProt Q2NNR5); assay: Inhibitory concentration against [3H]Leukotriene D4 binding to guinea-pig lung membranes was determined; experiment 2; assay type: tissue-based, Membrane
T1 sequence (Q2NNR5 whole entry): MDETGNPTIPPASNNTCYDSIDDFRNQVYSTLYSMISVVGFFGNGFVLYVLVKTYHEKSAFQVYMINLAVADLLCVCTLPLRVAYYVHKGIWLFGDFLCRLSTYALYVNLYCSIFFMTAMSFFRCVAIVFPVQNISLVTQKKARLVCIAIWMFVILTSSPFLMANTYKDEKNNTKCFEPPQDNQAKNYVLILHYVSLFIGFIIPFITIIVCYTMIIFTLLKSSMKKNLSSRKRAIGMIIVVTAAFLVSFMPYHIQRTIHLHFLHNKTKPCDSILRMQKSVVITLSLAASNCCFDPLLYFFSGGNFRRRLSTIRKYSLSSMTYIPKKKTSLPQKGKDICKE

[2] = Plasma clearance was estimated from the AUC after 5 mg/kg intravenous dosing in rats; assay type: ADME, organism-based; parameters: dose 5 mg/kg, route intravenous; conditions: rat
[3] = molecular target: T1, Cysteinyl leukotriene receptor 1; assay: Inhibitory concentration against [3H]Leukotriene D4 binding to guinea-pig lung membranes was determined; experiment 1; assay type: tissue-based, Membrane
[4] = molecular target: T1, Cysteinyl leukotriene receptor 1; assay: Inhibition of Leukotriene D4 induced contraction of guinea-pig trachea was determined; assay type: functional, tissue-based; conditions: read-out: pA2 (converted)
Mus musculus [5] = assay: The compound was tested for average percentage increase of fatty acyl Co-A oxidase activity after 4 days of dosing mice at 400 mg/kg peroral administration; assay type: functional; conditions: route oral
Rattus norvegicus [6] = assay: Percent inhibition of Antigen induced dyspnea in hyperactive rats by the compound at 0.5 mg/kg concentration was determined; assay type: functional
Cavia porcellus = assay: Effective dose in guinea pig on intravenous administration; assay type: functional
[7] = The apparent total plasma clearance in monkey; assay type: ADME, organism-based; conditions: cercopithecidae
[8] = molecular target: T1, Cysteinyl leukotriene receptor 1; assay: Inhibitory concentration against [3H]Leukotriene D4 binding to guinea-pig lung membranes was determined; assay type: tissue-based, Membrane
Mus musculus [9] = assay: The compound was tested for average percentage increase of fatty acyl Co-A oxidase activity after 4 days of dosing in mice at 400 mg/kg peroral administration; assay type: functional; conditions: route oral
Monkey [10] = assay: Inhibition of Leukotriene D4 induced bronchoconstriction in squirrel monkey, 4 hr pretreatment, 0.1 mg/kg peroral administration; assay type: functional; conditions: in Primates, route oral
Monkey [11] = assay: Inhibition of Leukotriene D4 induced bronchoconstriction in squirrel monkey, 4 hr pretreatment at 0.1 mg/kg peroral administration; assay type: functional; conditions: in Primates, route oral
Mus musculus [12] = assay: The compound was tested for average percentage increase of fatty acyl Co-A oxidase activity after 4 days of dosing in mice at 100 mg/kg peroral administration; assay type: functional; conditions: route oral
Rattus norvegicus [13] = assay: Percent inhibition of Antigen induced dyspnea in hyperractive rats by the compound at 0.5 mg/kg concentration was determined after peroral administration, 2 hr pretreatment; assay type: functional; conditions: route oral
[14] = molecular target: T1, Cysteinyl leukotriene receptor 1; assay: Inhibitory concentration against [3H]Leukotriene D4 binding to guinea-pig lung membranes was determined (Experiment 2); assay type: tissue-based, Membrane
[15] = molecular target: T1, Cysteinyl leukotriene receptor 1; assay: Inhibitory concentration against [3H]Leukotriene D4 binding to guinea-pig lung membranes was determined (Experiment 1); assay type: tissue-based, Membrane

SMILES | IC50 [1] [nM] | clearance [2] [mL/min/kg] | IC50 [3] [nM] | IC50 [8] [nM] | further results
CC(CSC(CCc1ccccc1[N+](=O)[O-])c1cccc(OCc2ccc3ccc(Cl)cc3n2)c1)C(=O)[O-].[Na+] (stereo not drawn) | 0.49 | 12 | 0.4 |  | 
CN(C)C(=O)CCS[C@H](SCCC(=O)O)c1cccc(/C=C/c2ccc3ccc(Cl)cc3n2)c1 [MK-571] |  |  |  | 3.9 | ED50 (Cavia porcellus): 2.8 µg/kg; clearance [7]: 1.2 mL/min/kg; Kb [4]: 1.58 nM; FACO Activity (Mus musculus [9]): 62%; inhibition in vivo at 0.1 mg/kg (Monkey [10]): 60%
CCC[C@H](CS[C@@H](CCc1ccccc1C(C)(C)O)c1cccc(/C=C/c2ccc3ccc(Cl)cc3n2)c1)C(=O)O [L-695499] |  |  |  | 0.9 | ED50 (Cavia porcellus): 2 µg/kg; Kb [4]: 1.58 nM; inhibition in vivo at 0.1 mg/kg (Monkey [11]): 72%; FACO Activity (Mus musculus [12]): 38%
CN(C)C(=O)CCSC(SCCC(=O)O)c1cccc(OCc2ccc3ccc(Cl)cc3n2)c1 (stereo not drawn) |  |  |  | 14 | 
CC(CSC(CCc1ccccc1C(=O)N(C)C)c1cccc(OCc2ccc3ccc(Cl)cc3n2)c1)C(=O)O (stereo not drawn) |  |  |  | 0.52 | 
CC(CSC(CCc1ccccc1C(=O)N(C)CO)c1cccc(OCc2ccc3ccc(Cl)cc3n2)c1)C(=O)O (stereo not drawn) |  |  |  | 3.6 | 
CCOC(=O)Nc1ccccc1CCC(SCC(CC)C(=O)[O-])c1cccc(CCc2ccc3ccc(Cl)cc3n2)c1.[Na+] (stereo not drawn) | 0.6 | 8.8 | 0.5 |  | 
O=C([O-])CCSC(CCc1ccccc1C(=O)N1CCCCC1)c1cccc(OCc2ccc3ccc(Cl)cc3n2)c1.[Na+] (stereo not drawn) |  | 55 |  | 0.6 | 
CCC(CSC(CCc1ccccc1C#N)c1cccc(CCc2ccc3ccc(Cl)cc3n2)c1)C(=O)[O-].[Na+] (stereo not drawn) |  | 13 |  | 1 | 
CN(C)C(=O)c1ccccc1CCC(SCCC(=O)[O-])c1cccc(OCc2ccc3ccc(Cl)cc3n2)c1.[Na+] (stereo not drawn) |  | 64 |  | 0.95 | 
CC(CCC(SCCC(=O)O)c1cccc(/C=C/c2ccc3ccc(Cl)cc3n2)c1)CC(=O)N(C)C (stereo not drawn) |  |  |  | 1.3 | 
CN(C)C(=O)CCSC(CCc1ccccc1C(=O)O)c1cccc(OCc2ccc3ccc(Cl)cc3n2)c1 (stereo not drawn) |  |  |  | 1.9 | inhibition in vivo at 0.5 mg/kg (Rattus norvegicus [13]): 54%; clearance [7]: 15 mL/min/kg
CN(C)C(=O)CCSC(SCCC(=O)O)c1cccc(SCc2ccc3ccc(Cl)cc3n2)c1 (stereo not drawn) |  |  |  | 75 | 
CN(C)C(=O)CCSC(SCCC(=O)O)c1cccc(CCc2ccc3ccc(Cl)cc3n2)c1 (stereo not drawn) |  |  |  |  | IC50 [14]: 36 nM; IC50 [15]: 26 nM
CN(C)C(=O)c1ccccc1CCC(SCCC(=O)O)c1cccc(OCc2ccc3ccc(Cl)cc3n2)c1 (stereo not drawn) |  |  |  | 0.95 | 
CC(CCC(SCCC(=O)O)c1cccc(OCc2ccc3ccc(Cl)cc3n2)c1)CC(=O)N(C)C (stereo not drawn) |  |  |  | 8.6 | 
O=C([O-])CCSC(CCc1ccccc1-c1nc[nH]n1)c1cccc(OCc2ccc3ccc(Cl)cc3n2)c1.[Na+] (stereo not drawn) |  | 64 |  | 0.36 | 
O=C([O-])CCSC(CCc1ccccc1)c1cccc(OCc2ccc3ccc(Cl)cc3n2)c1.[Na+] (stereo not drawn) |  | 2.9 |  | 6.5 | 

Continued, in another order:

IC50 [1] [nM] | clearance [2] [mL/min/kg] | IC50 [3] [nM] | IC50 [8] [nM] | SMILES | further results
1 | 8.8 | 2 |  | CCC(CSC(CCc1ccccc1C(=O)O)c1cccc(OCc2ccc3ccc(Cl)cc3n2)c1)C(=O)[O-].[Na+] (stereo not drawn) | 
20 |  | 17 |  | C[C@H](CS[C@@H](CCc1ccccc1C(C)(C)O)c1cccc(OCc2ccc3ccc(Cl)cc3n2)c1)C(=O)[O-].[Na+] | Kb [4]: 5.01 nM; FACO Activity (Mus musculus [5]): 10%; inhibition in vivo at 0.5 mg/kg (Rattus norvegicus [6]): 47%
0.85 | 12 | 0.5 |  | CC(CSC(CCc1ccccc1C(C)(C)O)c1cccc(OCc2ccc3ccc(Cl)cc3n2)c1)C(=O)[O-].[Na+] (stereo not drawn) | 
0.5 | 61 | 0.8 |  | CCC(CSC(CCc1ccccc1-c1nn[nH]n1)c1cccc(OCc2ccc3ccc(Cl)cc3n2)c1)C(=O)[O-].[Na+] (stereo not drawn) | 
0.6 | 131 | 0.56 |  | CS(=O)(=O)Nc1ccccc1CCC(SCCC(=O)[O-])c1cccc(OCc2ccc3ccc(Cl)cc3n2)c1.[Na+] (stereo not drawn) | 
1 | 35 | 0.6 |  | CCC(CSC(CCc1ccccc1S(C)(=O)=O)c1cccc(OCc2ccc3ccc(Cl)cc3n2)c1)C(=O)[O-].[Na+] (stereo not drawn) | 
 | 106 |  | 0.45 | CCNC(=O)c1ccccc1CCC(SCC(CC)C(=O)[O-])c1cccc(OCc2ccc3ccc(Cl)cc3n2)c1.[Na+] (stereo not drawn) | 
4 |  | 2 |  | C[C@H](CS[C@H](CCc1ccccc1C(C)(C)O)c1cccc(OCc2ccc3ccc(Cl)cc3n2)c1)C(=O)[O-].[Na+] | Kb [4]: 0.794 nM; FACO Activity (Mus musculus [9]): 128%; inhibition in vivo at 0.5 mg/kg (Rattus norvegicus [6]): 62%
 | 58 |  | 0.47 | CCC(CSC(CCc1ccccc1C(N)=O)c1cccc(OCc2ccc3ccc(Cl)cc3n2)c1)C(=O)[O-].[Na+] (stereo not drawn) | 
7 |  | 5 |  | C[C@@H](CS[C@@H](CCc1ccccc1C(C)(C)O)c1cccc(OCc2ccc3ccc(Cl)cc3n2)c1)C(=O)[O-].[Na+] | Kb [4]: 1.58 nM; FACO Activity (Mus musculus [5]): -7%; inhibition in vivo at 0.5 mg/kg (Rattus norvegicus [6]): 46%
 | 18 |  | 0.4 | CCC(CSC(CCc1ccccc1-c1nnnn1C)c1cccc(OCc2ccc3ccc(Cl)cc3n2)c1)C(=O)[O-].[Na+] (stereo not drawn) | 
 | 2.2 |  | 6.3 | CC(CSC(CCc1ccccc1C(C)C)c1cccc(OCc2ccc3ccc(Cl)cc3n2)c1)C(=O)[O-].[Na+] (stereo not drawn) | 
0.3 |  | 0.2 |  | C[C@@H](CS[C@H](CCc1ccccc1C(C)(C)O)c1cccc(OCc2ccc3ccc(Cl)cc3n2)c1)C(=O)[O-].[Na+] | Kb [4]: 0.398 nM; FACO Activity (Mus musculus [9]): 155%; inhibition in vivo at 0.5 mg/kg (Rattus norvegicus [6]): 63%
0.6 | 106 | 0.4 |  | NS(=O)(=O)c1ccccc1CCC(SCCC(=O)[O-])c1cccc(OCc2ccc3ccc(Cl)cc3n2)c1.[Na+] (stereo not drawn) | 
6.5 | 15 | 1.4 |  | CCC(CSC(CCc1ccccc1C(=O)NS(=O)(=O)c1ccccc1C)c1cccc(OCc2ccc3ccc(Cl)cc3n2)c1)C(=O)[O-].[Na+] (stereo not drawn) | 
